Experimental data as given in article PMC9396064, “The enzyme pseudooxynicotine amine oxidase from Pseudomonas putida S16 is not an oxidase, but a dehydrogenase” (The Journal of Biological Chemistry, 2022).

Target: T1, Pnao (pseudooxynicotine amine oxidase) (Pseudomonas putida, UniProt F8G0P1)
T1 construct: signal peptide removed (from Ala45 onward); N-terminal His-SUMO tag cleaved with ULP1; pET28a, E. coli BL21 (DE3); FAD-containing homodimer
Assay: X-ray crystal structure, […] Å
Type: binding
Conditions: crystals pH 9; oxidized FAD at the active site

T1 sequence (F8G0P1 45-496): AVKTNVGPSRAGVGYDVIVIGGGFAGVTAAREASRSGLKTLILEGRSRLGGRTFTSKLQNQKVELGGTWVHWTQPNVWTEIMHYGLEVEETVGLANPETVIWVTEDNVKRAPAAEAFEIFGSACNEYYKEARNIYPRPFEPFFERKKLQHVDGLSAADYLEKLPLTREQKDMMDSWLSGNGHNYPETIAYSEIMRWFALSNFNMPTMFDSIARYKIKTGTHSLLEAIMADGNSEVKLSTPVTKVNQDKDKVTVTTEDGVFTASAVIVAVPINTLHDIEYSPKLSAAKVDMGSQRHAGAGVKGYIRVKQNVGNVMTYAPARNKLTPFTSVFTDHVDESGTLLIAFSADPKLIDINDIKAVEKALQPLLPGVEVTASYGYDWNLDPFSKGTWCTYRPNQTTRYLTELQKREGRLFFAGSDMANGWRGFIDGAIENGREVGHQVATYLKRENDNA

Cc1cc2nc3c(=O)[nH]c(=O)nc-3n(C[C@H](O)[C@H](O)[C@H](O)COP(=O)(O)OP(=O)(O)OC[C@H]3O[C@@H](n4cnc5c(N)ncnc54)[C@H](O)[C@@H]3O)c2cc1C [flavin adenine dinucleotide]
X-ray crystal structure, 2.60 Å: Our structure of Pnao contained oxidized FAD
